Measured values as given in patent publication US9416162B2, “Peptides having reduced toxicity that stimulate cholesterol efflux” (The Regents of the University of California, priority 2013, dated 2016).
Non-standard residues stand in square brackets, D forms with d. No end group written: not given here. Cit = NC(=O)NCCC[C@H](N)C(=O)O

Tested on: apoE−/− mice
Experiment: Macrophage reverse cholesterol transport (RCT) to feces in vivo
Parameters: species or system mouse
Conditions: male apoE−/− mice, IP lipid-free peptide 10 or 30 mg/kg
Experimental: J774 macrophage foam-cells (acetylated LDL, 100 μg/ml) labeled with [^3H]cholesterol were injected IP into male, atherosclerotic apoE deficient (apoE^−/−) mice 5 months of age together with vehicle alone (PBS) or with lipid-free CS6253 peptide at doses of 10 or 30 mg/kg. Feces were collected at 24 h for assessment of [^3H]sterol. Values are means±SD, n=5 mice per group.

## EVCitSKLEEWLAALCitELAEELLARLKS (SEQ ID NO:2) (EV[Cit]SKLEEWLAAL[Cit]ELAEELLARLKS) [CS6253, citrulline form of LeuATI-5261, R3,14→Citrulline, 26-mer]
  macrophage RCT, [3H]sterol in feces at 24 h: stimulated macrophage RCT
